{"source": "patent EP4692089A1", "about": "“NITROGEN-CONTAINING HETEROCYCLIC COMPOUND AS AAK1 INHIBITOR” (Alicorn Pharmaceutical Co., Ltd., priority 2023, dated 2024)", "key": {"[1]": {"test": "Pharmacokinetic test in SD rats", "method": "Experimental objective: The objective of this experimental example is to test the pharmacokinetic profile of compounds in SD rats.\nRoute of administration: The animals were weighed before administration, and the dose was calculated based on their body weight. Administration was performed via intravenous injection and oral gavage.\nBlood collection time points: After administration, for IV group: 0.083 h, 0.25 h, 0.5 h, 1 h, 2 h, 4 h, 8 h, and 24 h; for PO group: 0.25 h, 0.5 h, 1 h, 2 h, 4 h, 6 h, 8 h, and 24 h. Blood was collected via the jugular vein, with approximately 0.2 mL collected for each sample. The blood samples were anticoagulated with K2-EDTA and placed on ice after collection.\nPlasma sample processing: After collection, the blood samples were placed on ice and centrifuged within 1 hour to separate plasma (centrifugation conditions: 6800g, 6 minutes, 2-8°C). The plasma samples were stored in a -80°C refrigerator before analysis.\nResult analysis: Pharmacokinetic parameters were calculated using Phoenix WinNonlin 7.0 based on the plasma concentration data at different time points."}, "[2]": {"system": "streptozotocin (STZ)-induced peripheral neuropathic pain (DPNP) in diabetic rat models", "test": "Efficacy test in diabetic peripheral neuropathic pain (DPNP), Von Frey pain threshold", "type": "in vivo, SD rats", "settings": "for MWT (g) After modeling: before administration; for MWT (g) 2h: 2 h after administration; for MWT (g) 4 h: 4 h after administration; for MWT (g) 5 h: 5 h after administration; for MWT (g) 6h: 6 h after administration; for duration of analgesia: time after administration", "protocol": "Experimental methods: After the adaptation period, the rats were tested for baseline plantar pain threshold using the Von Frey (Up-Down method) before modeling. Subsequently, except for the blank control group, all other rats were fasted for 16 hours with free access to water and then intraperitoneally injected with streptozotocin for modeling (65 mg/kg; 2 mL/kg). One week after modeling, blood was collected from the tail tip to detect blood glucose levels after a 4-hour fast. Rats with blood glucose levels higher than 16.7 mmol/L were considered diabetic."}, "[3]": {"test": "Blood-brain distribution in DPNP model rats", "settings": "SD, rat; for concentration at 6 h: oral; for Kp at 6 h: brain/plasma, po", "method": "Experimental objective: This experiment aims to investigate the analgesic effect of test compounds on streptozotocin (STZ)-induced peripheral neuropathic pain (DPNP) in diabetic rat models and the brain-blood distribution of the compounds associated with the efficacy, via single oral gavage (ig.) administration.\nAfter successful modeling, the baseline plantar pain threshold of the rats was tested using the Von Frey (UP-Down method) as the baseline pain threshold before administration, and the rats were evenly grouped according to their pain thresholds. The groups included a blank control group, a model group, a positive control group (1 mg/kg), a Compound 26 (0.5 mg/kg) group, and a Compound 26 (1 mg/kg) group. The next day, the rats were administered the vehicle or corresponding drugs. At 2 h, 3 h, 4 h, 5 h, and 6 h after administration, the pain threshold of the plantar region on the affected side of rats was determined using Von Frey filaments to calculate the pain threshold improvement rate of the test compounds against neuropathic pain in diabetic rats, and to observe the time-effect relationship. After the experiment, rats from groups G3-G5 (numbers 1-3 per group) were sacrificed, and plasma and brain tissue samples were collected for testing."}, "[4]": {"settings": "male, SD, rat, plasma, po, 3 mg/kg"}}, "note": "Where “and” joins values, the source holds several entries; their conditions need not be identical. Identical values can stand only once.", "data": [{"molecule": "CC(C)C[C@](C)(N)COc1ccc(-c2c[nH]c3ncc(F)cc23)nc1C(F)F", "note": "[Compound 26, (S)-1-{[2-(difluoromethyl)-6-(5-fluoro-1H-pyrrolo[2,3-b]pyridin-3-yl)pyridin-3-yl]oxy}-2,4-dimethylpentan-2-amine]", "values": [{"measurement": "in vivo exposure compared with the positive control", "setting": "[1]; SD rats, versus BMS-986176", "value": "approximately four times"}, {"measurement": "peak concentration (Cmax) compared with the positive control", "setting": "[1]; SD rats, versus BMS-986176", "value": "approximately four times"}, {"measurement": "AUC(0-inf)", "setting": "[1]; [4]", "value": 4130, "unit": "ng·h/mL"}, {"measurement": "AUC(0-t)", "setting": "[1]; [4]", "value": 4010, "unit": "ng·h/mL"}, {"measurement": "Cmax", "setting": "[1]; [4]", "value": 325, "unit": "ng/mL"}, {"measurement": "MRT inf", "setting": "[1]; [4]", "value": 10.9, "unit": "h"}, {"measurement": "MRT last", "setting": "[1]; [4]", "value": 8.09, "unit": "h"}, {"measurement": "Tmax", "setting": "[1]; [4]", "value": 3.1, "unit": "h"}, {"measurement": "half-life", "setting": "[1]; [4]", "value": 6.98, "unit": "h"}, {"measurement": "MWT (g) After modeling", "setting": "[2]; 0.5 mg/kg group, x±s, n=5", "value": "6.97 ± 2.16", "unit": "g"}, {"measurement": "Pain threshold improvement rate 2h", "setting": "[2]; 0.5 mg/kg single ig.", "value": 50.87}, {"measurement": "MWT (g) 2h", "setting": "[2]; 0.5 mg/kg single ig., x±s, n=5", "value": "7.50 ± 2.37", "unit": "g"}, {"measurement": "Pain threshold improvement rate 3 h", "setting": "[2]; 0.5 mg/kg single ig.", "value": 54.93}, {"measurement": "MWT (g) 3 h", "setting": "[2]; 0.5 mg/kg single ig., 3 h after administration, x±s, n=5", "value": "9.63 ± 3.40", "unit": "g"}, {"measurement": "Pain threshold improvement rate 4h", "setting": "[2]; 0.5 mg/kg single ig.", "value": 35.29}, {"measurement": "MWT (g) 4 h", "setting": "[2]; 0.5 mg/kg single ig., x±s, n=5", "value": "6.23 ± 2.10", "unit": "g"}, {"measurement": "Pain threshold improvement rate 5 h", "setting": "[2]; 0.5 mg/kg single ig.", "value": 28.18}, {"measurement": "MWT (g) 5 h", "setting": "[2]; 0.5 mg/kg single ig., x±s, n=5", "value": "5.61 ± 3.00", "unit": "g"}, {"measurement": "Pain threshold improvement rate 6h", "setting": "[2]; 0.5 mg/kg single ig.", "value": 24.02}, {"measurement": "MWT (g) 6h", "setting": "[2]; 0.5 mg/kg single ig., x±s, n=5", "value": "4.82 ± 1.07", "unit": "g"}, {"measurement": "duration of analgesia", "setting": "[2]; 0.5 mg/kg", "value": "≤ 4", "unit": "h"}, {"measurement": "MWT (g) After modeling", "setting": "[2]; 1 mg/kg group, x±s, n=5", "value": "7.28 ± 2.09", "unit": "g"}, {"measurement": "Pain threshold improvement rate 2h", "setting": "[2]; 1 mg/kg single ig.", "value": 71.05}, {"measurement": "MWT (g) 2h", "setting": "[2]; 1 mg/kg single ig., x±s, n=5", "value": "12.72 ± 3.12", "unit": "g"}, {"measurement": "Pain threshold improvement rate 3 h", "setting": "[2]; 1 mg/kg single ig.", "value": 58.89}, {"measurement": "Pain threshold improvement rate 4h", "setting": "[2]; 1 mg/kg single ig.", "value": 59.53}, {"measurement": "MWT (g) 4 h", "setting": "[2]; 1 mg/kg single ig., x±s, n=5", "value": "9.96 ± 4.93", "unit": "g"}, {"measurement": "Pain threshold improvement rate 5 h", "setting": "[2]; 1 mg/kg single ig.", "value": 20.88}, {"measurement": "MWT (g) 5 h", "setting": "[2]; 1 mg/kg single ig., x±s, n=5", "value": "5.10 ± 1.55", "unit": "g"}, {"measurement": "Pain threshold improvement rate 6h", "setting": "[2]; 1 mg/kg single ig.", "value": 9.51}, {"measurement": "MWT (g) 6h", "setting": "[2]; 1 mg/kg single ig., x±s, n=5", "value": "4.05 ± 0.66", "unit": "g"}, {"measurement": "duration of analgesia", "setting": "[2]; 1 mg/kg", "value": "≤ 4", "unit": "h"}, {"measurement": "concentration at 6 h", "setting": "[3]; brain, 0.5 mg/kg", "value": "62.5 ng/mL and 688 ng/g"}, {"measurement": "concentration at 6 h", "setting": "[3]; brain, 1 mg/kg", "value": "120 ng/mL and 1320 ng/g"}, {"measurement": "Kp at 6 h", "setting": "[3]; 0.5 mg/kg", "value": 17.9}, {"measurement": "Kp at 6 h", "setting": "[3]; 1 mg/kg", "value": 17.6}, {"measurement": "concentration at 6 h", "setting": "[3]; plasma, 0.5 mg/kg", "value": 38.5, "unit": "ng/mL"}, {"measurement": "concentration at 6 h", "setting": "[3]; plasma, 1 mg/kg", "value": 75.3, "unit": "ng/mL"}]}]}
